Experimental data published in publication PMC8351955, “Targeting Mycobacterium tuberculosis response to environmental cues for the development of effective antitubercular drugs” (PLoS Biology, 2021).
Read-outs that look alike come from different tables or passages of the source.

Tests used:
Assay in all cases: microbe, parasite or virus in culture
Assay type in all cases: cell-based, Mycobacterium tuberculosis
[1] = system: CDC1551(rv2390c′::GFP) reporter Mtb strain, response to high [Cl−]; settings: for activity at 10 µM / activity at 20 µM / IC50: Mycobacterium tuberculosis; for activity at 10 µM / activity at 20 µM: 144 h; for activity at 20 µM: read-out: rv2390c'::GFP validation assay NPA% at 20 µM compound; for IC50: read-out: ShuminTan.MtbChloride.Validation: IC50; for ShuminTan.MtbChloride.Primary: NPI%: primary screen, Sheet2
[2] = system: Mtb growth in J774 murine macrophage-like cells; settings: for inhibition at 10 µM / inhibition at 20 µM / IC50: Mycobacterium tuberculosis; for inhibition at 10 µM: read-out: J774 tertiary assay % inhibition compared to Rif at 10 µM compound; for IC50: J774 dose response 0.039-20 µM, read-out: ShuminTan.Mtb.Validation.Macrophage: IC50; for NPI (Mtb growth in J774 cells), average: Fig 1F
[3] = system: CDC1551(rv1405c′::GFP) reporter Mtb strain; settings: for activity at 10 µM / activity at 20 µM / IC50: Mycobacterium tuberculosis; for activity at 10 µM: read-out: rv1405c'::GFP secondary assay NPA% at 10 µM compound; for activity at 20 µM: read-out: rv1405c'::GFP secondary assay NPA% at 20 µM compound; for IC50: read-out: ShuminTan.MtbChloride.Secondary: IC50
[4] = pH 6.4, […], DMSO positive control = 100%, read-out: Primary screen rv2390c'::GFP NPA%
[5] = 10 µM, pH 6.4, 250 mM NaCl, 6 days, read-out: rv2390c'::GFP validation assay NPA% at 10 µM compound
[6] = J774, 144 h, read-out: J774 tertiary assay % inhibition compared to Rif at 20 µM compound
[7] = J774, read-out: %inhibition compared to Rif in J774 at 20 uM
[8] = 0.078125 µM, 5 µM rifampicin = 100% inhibition

| Structure (SMILES) | activity at 10 µM [1, 4] [%] | activity at 10 µM [1, 5] [%] | activity at 20 µM ([1]; pH 6.4, 250 mM NaCl, 6 days) [%] | inhibition at 10 µM ([2]; J774, 144 h) [%] | inhibition at 20 µM [2, 6] [%] | activity at 10 µM [3] [%] | activity at 20 µM [3] [%] | further results |
| --- | --- | --- | --- | --- | --- | --- | --- | --- |
| N#Cc1nc(NC(=O)c2ccc(N3CCCC3)c(F)c2)[nH]c1C#N [RU-0274370, FC1=C(C=CC(=C1)C(=O)NC1=NC(C#N)=C(N1)C#N)N1CCCC1] | 227 | 143 ± 10 | 268 ± 20.8 | 22.2 ± 0.2 | 25.3 ± 4.1 | 181 ± 7.8 | 363 ± 8.7 |  |
| N=C1SCC(=O)N1c1ncc(Cc2ccccc2)s1 [RU-0270641, N=C1SCC(=O)N1C1=NC=C(CC2=CC=CC=C2)S1] | 42.5 | 69 ± 5 | 33.9 ± 6.5 | 12.1 ± 10.5 | 28.8 ± 4.5 | 79.6 ± 11 | 110 ± 12.2 |  |
| O=C(Nc1ccc(OCC(F)(F)F)nc1)N1CCCCCCC1 [RU-0275323, FC(F)(F)COC1=NC=C(NC(=O)N2CCCCCCC2)C=C1] | 45.1 | 87.5 ± 8 | 49.4 ± 7.1 |  |  | 111 ± 5.5 | 112 ± 10.6 | validation NPI at 10 uM [1]: 88.4; validation NPI at 20 uM [1]: 51.1; IC50 [1]: 13 µM; ShuminTan.MtbChloride.Primary: NPI% [1]: 45.0537%; inhibition at 20 µM [2, 7]: 15.8%; IC50 [2]: > 20 µM; rv1405c assay NPI at 10 uM [3]: 111; rv1405c assay NPI at 20 uM [3]: 112; IC50 [3]: < 0.0391 µM |
| CN(CC(O)c1ccccc1Cl)C1CCc2ccccc21 (stereo not shown) [RU-0271187, CN(CC(O)C1=C(Cl)C=CC=C1)C1CCC2=C1C=CC=C2] | 166 | 138 ± 7.4 | 207 ± 9.5 | 4.8 ± 0.1 | 36.1 ± 0.1 | 228 ± 8.7 | 461 ± 7.9 |  |
| CCOc1ccc(OCCN(CC)CC(O)c2ccc(C)cc2)cc1 (stereo not shown) [RU-0211290, CCOC1=CC=C(OCCN(CC)CC(O)C2=CC=C(C)C=C2)C=C1] | 152 | 111 ± 8.9 | 145 ± 8.4 |  |  | 102 ± 6.3 | 128 ± 6 | validation NPI at 10 uM [1]: 111; validation NPI at 20 uM [1]: 146; IC50 [1]: < 0.0391 µM; ShuminTan.MtbChloride.Primary: NPI% [1]: 152.309%; inhibition at 20 µM [2, 7]: 17.1%; IC50 [2]: > 20 µM; rv1405c assay NPI at 10 uM [3]: 103; rv1405c assay NPI at 20 uM [3]: 129; IC50 [3]: < 0.0391 µM |
| Cc1cccc(C)c1OC1CCN(c2cncc(C(N)=O)n2)CC1 [RU-0273431, CC1=CC=CC(C)=C1OC1CCN(CC1)C1=NC(=CN=C1)C(N)=O] | 151 | 136 ± 9.1 | 135 ± 17.7 | 21.4 ± 7.4 | 34.9 ± 5.2 | 145 ± 16 | 159 ± 12.5 |  |
| CCc1nc(Cn2ccnc2-c2nc3c(s2)CCCC3)no1 [RU-0226010, CCC1=NC(CN2C=CN=C2C2=NC3=C(CCCC3)S2)=NO1] | 168 | 125 ± 6.6 | 129 ± 4 |  | 30.4 ± 2.4 | 92.3 ± 12.5 | 104 ± 23.1 |  |
| O=C(c1cnn2ccccc12)N1CCCC(CCc2cccc(C(F)(F)F)c2)C1 (stereo not shown) [C5 analog, FC(F)(F)C1=CC=CC(CCC2CCCN(C2)C(=O)C2=C3C=CC=CN3N=C2)=C1] | 167 | 112 ± 12 | 156 ± 9.9 | 21.4 ± 7.7 | 48.2 ± 1.5 | 110 ± 7.2 | 150 ± 12 | NPI (Mtb growth in J774 cells), average [2, 8]: -4.805%; NPI (Mtb growth in J774 cells), average ([2]; 0.15625 µM): -8.165%; NPI (Mtb growth in J774 cells), average ([2]; 0.3125 µM): -7.245%; NPI (Mtb growth in J774 cells), average ([2]; 0.625 µM): 7.86%; NPI (Mtb growth in J774 cells), average ([2]; 1.25 µM): -0.385%; NPI (Mtb growth in J774 cells), average ([2]; 2.5 µM): 11.205%; NPI (Mtb growth in J774 cells), average ([2]; 5 µM): 9.965%; NPI (Mtb growth in J774 cells), average ([2]; 10 µM): 21.35%; NPI (Mtb growth in J774 cells), average ([2]; 20 µM): 48.15% |
| Cc1c(Cl)cccc1S(=O)(=O)Nc1nn(C(C)(C)C)cc1C#N [RU-0208737, CC1=C(C=CC=C1Cl)S(=O)(=O)NC1=NN(C=C1C#N)C(C)(C)C] | 47.8 | 53.8 ± 2.8 | 40.2 ± 8.5 | 9.6 ± 0.7 | 20.9 ± 6.9 | 50.8 ± 1.7 | 84.4 ± 13.1 |  |
| Cc1ccc(NS(=O)(=O)c2ccc(C)c(F)c2)c(C(=O)O)c1 [RU-0273440, CC1=CC(C(O)=O)=C(NS(=O)(=O)C2=CC(F)=C(C)C=C2)C=C1] | 49.3 | 60.2 ± 7.2 | 37.7 ± 5.2 |  |  | 33.8 ± 5.6 | 23.3 ± 4.7 | validation NPI at 10 uM [1]: 60.2; validation NPI at 20 uM [1]: 37.8; IC50 [1]: > 20 µM; ShuminTan.MtbChloride.Primary: NPI% [1]: 49.3142%; inhibition at 20 µM [2, 7]: 18.3%; IC50 [2]: > 20 µM; rv1405c assay NPI at 10 uM [3]: 34; rv1405c assay NPI at 20 uM [3]: 23.8; IC50 [3]: < 0.0391 µM |
| CCCSc1ncc(CN2CCN(c3ncnc4[nH]cnc34)CC2)cn1 [C6 analog, CCCSC1=NC=C(CN2CCN(CC2)C2=NC=NC3=C2N=CN3)C=N1] | 153 | 124 ± 10.1 | 158 ± 6.1 | 41.2 ± 0.6 | 53.2 ± 1.6 | 151 ± 6.4 | 154 ± 8.1 | NPI (Mtb growth in J774 cells), average [2, 8]: -6.22%; NPI (Mtb growth in J774 cells), average ([2]; 0.15625 µM): 3.8025%; NPI (Mtb growth in J774 cells), average ([2]; 0.3125 µM): 9.675%; NPI (Mtb growth in J774 cells), average ([2]; 0.625 µM): 16.75%; NPI (Mtb growth in J774 cells), average ([2]; 1.25 µM): 32.05%; NPI (Mtb growth in J774 cells), average ([2]; 2.5 µM): 36.55%; NPI (Mtb growth in J774 cells), average ([2]; 5 µM): 46.75%; NPI (Mtb growth in J774 cells), average ([2]; 10 µM): 41.15%; NPI (Mtb growth in J774 cells), average ([2]; 20 µM): 53.2% |
| Cc1sc(NS(=O)(=O)c2ccc(F)c(F)c2)c(C(N)=O)c1C [RU-0205217, CC1=C(C)C(C(N)=O)=C(NS(=O)(=O)C2=CC(F)=C(F)C=C2)S1] | 163 | 128 ± 4.7 | 217 ± 16.5 |  |  | 305 ± 31.1 | 741 ± 74 |  |
| CCNC(=O)CSc1ccc2c3c(cccc13)C(=O)c1ccccc1-2 [RU-0209034, CCNC(=O)CSC1=C2C=CC=C3C(=O)C4=C(C=CC=C4)C(C=C1)=C23] | 182 | 128 ± 15.3 | 199 ± 7.5 |  |  | 183 ± 12.7 | 401 ± 7.5 |  |
| CCCc1ccccc1NC(N)=S [RU-0214166, CCCC1=C(NC(N)=S)C=CC=C1] | 34.1 | 56.8 ± 5.8 | 31.6 ± 12.3 |  |  | 61.8 ± 0.5 | 111 ± 15.1 |  |
| CC(C)(C)n1cc(C#N)c(NS(=O)(=O)c2cccc(F)c2)n1 [RU-0277089, CC(C)(C)N1C=C(C#N)C(NS(=O)(=O)C2=CC(F)=CC=C2)=N1] | 45.4 | 51.2 ± 5.5 | 28.2 ± 0.7 |  |  | 43.2 ± 4.1 | 17.4 ± 5.4 |  |
| O=C(O)c1cc(-c2ccc(N3CCOCC3)cc2)nn1-c1ccc(F)cc1 [RU-0206470, OC(=O)C1=CC(=NN1C1=CC=C(F)C=C1)C1=CC=C(C=C1)N1CCOCC1] | 157 | 111 ± 10.3 | 165 ± 15.9 |  |  | 104 ± 4.5 | 158 ± 23.6 |  |
| OCC(CNc1nc(N2CCCC2)nc(N2CCCC2)n1)Cc1ccco1 (stereo not shown) [RU-0198952, OCC(CNC1=NC(=NC(=N1)N1CCCC1)N1CCCC1)CC1=CC=CO1] | 170 | 123 ± 7.8 | 194 ± 15.6 |  |  | 171 ± 12.8 | 380 ± 28.2 |  |
| Cc1csc(/C(C#N)=C\c2ccc(C3CC3C)o2)n1 (stereo not shown) [RU-0200280, CC1CC1C1=CC=C(O1)\C=C(\C#N)C1=NC(C)=CS1] | 277 | 144 ± 5.5 | 248 ± 21.2 |  |  | 399 ± 31.8 |  |  |
| COc1ccc2c(CN3CCOCC(CN(C)C)C3)cn(C)c2c1 (stereo not shown) [RU-0260647, COC1=CC=C2C(CN3CCOCC(CN(C)C)C3)=CN(C)C2=C1] | 162 | 114 ± 3.2 | 130 ± 7.6 |  |  | 112 ± 2.5 | 130 ± 3.6 |  |
| CCOC(=O)Cc1cc(=O)n2nc(C(F)(F)F)c(-c3ccccc3)c2[nH]1 [RU-0171667, CCOC(=O)CC1=CC(=O)N2N=C(C(=C2N1)C1=CC=CC=C1)C(F)(F)F] | 163 | 148 ± 28.3 | 178 ± 17.6 |  |  | 84.5 ± 11.2 | 94.8 ± 4 |  |
| CC(C)CCOc1ccc(C(=O)Nc2cc(Cl)ccc2C(N)=O)cc1 [RU-0202925, CC(C)CCOC1=CC=C(C=C1)C(=O)NC1=C(C=CC(Cl)=C1)C(N)=O] | 46.5 | 57.1 ± 7.4 | 60.8 ± 9.8 |  |  | 63.2 ± 8.6 | 61.8 ± 14.4 |  |
| COc1ccc(NCc2ccc(OC)c(Br)c2)cn1 [RU-0270711, COC1=NC=C(NCC2=CC(Br)=C(OC)C=C2)C=C1] | 162 | 135 ± 4 | 292 ± 6.7 |  |  | 227 ± 8.7 | 603 ± 10.5 |  |
